Measurements taken from publication PMC11062899, “De novo development of small cyclic peptides that are orally bioavailable” (Nature Chemical Biology, 2023).
“And” between values parts separate entries of the source, which are not always exact repeats. Equal entries are not always repeated.

How the values were obtained:
human α-thrombin = human α-thrombin (Homo sapiens, UniProt P00734); experiment: Sub-library screen for active and permeable cyclic peptides (PAMPA plus thrombin inhibition); format: biochemical; details: crude, slopes normalized to DMSO; for Residual thrombin activity: Top sample: PAMPA acceptor well after 14 h, 5 μM donor; for Residual thrombin activity: Equilibrated sample: donor sample diluted to theoretical equilibrium (1 μM in assay)
Method: Linear dithiol peptides were synthesized in fritted 5-ml polypropylene syringes on a MultiPep RSi parallel peptide synthesizer (Intavis) by standard Fmoc-based solid-phase peptide synthesis on cysteamine 2-chlorotrityl resin (Sigma-Aldrich, 8.56000, 1.63 mmol g^−1 loading, 25 μmol scale) as described above with small changes. Amino acids (65 μmol, 2.6 eq.) were activated with HATU (63 μmol, 2.5 eq.) and NMM (145 μmol, 5.8 eq.) in 280 μl of DMF and 5 μl of NMP and let to react with the resin (25 μmol, 1 eq.) for 45 min. Couplings were performed twice for each amino acid. Resin was washed once with 800 μl of DMF, and unreacted amines were capped with 5% acetic anhydride and 6% 2,6-lutidine in 400 μl of DMF for 5 min. The resin was washed six times with 600 μl of DMF, and Fmoc protecting groups were removed by incubating the resin twice with 450 μl of a 20% piperidine solution in DMF for 5 min. The resin was washed six times with 600 μl of DMF before proceeding to the next coupling cycle. After completing the last coupling cycle, the resin was washed six times with […] of DCM. Peptide cleavage and ether precipitation were carried out as described above. After quantification with Ellman’s reagent, 1 μmol of each peptide was transferred in seven replicates to new Nunc 96-well DeepWell polypropylene plates and lyophilized. Peptides were cyclized as described above to afford 20 mM cyclic peptide stock solutions in DMSO containing 160 mM HEPES sodium salt. The amine on cyclic peptides was acylated with 5-chlorothiophene-2-carboxylic acid as follows. A 160 mM solution in 5-chlorothiophene-2-carboxylic acid was prepared in DMSO containing 160 mM HEPES sodium salt, and the acid was activated by mixing in equal volumes with a 160 mM HSTU solution in DMSO. Then, 10 μl of the activated carboxylic acid solutions and the cyclic peptide stocks were placed in Echo Qualified 384-well Low Dead Volume microplates (Labcyte), and 400 nl of cyclic peptide and 400 nl of HSTU-activated 5-chlorothiophene-2-carboxylic acid were transferred combinatorially to 384-well microplates (Greiner, 781076) using the Echo 650 acoustic liquid handler (Labcyte). Plates were centrifuged at 2,000 g for 2 min, and the reaction was allowed to proceed at room temperature for 8 h before addition of 39.2 μl of DMSO with a CERTUS FLEX liquid dispenser (Gyger). A volume of 25 μl of the resulting DMSO solutions was diluted with PBS buffer at pH 7.4 containing 5% DMSO in Nunc 96-well DeepWell polypropylene plates to afford 5 μM solutions of the acylated peptides.
The PAMPA plates were covered with a lid to avoid evaporation and incubated for 14 h at room temperature. Additionally, a diluted donor sample was prepared at the concentration representing theoretical maximum permeability (3 μM). Thereby, 30 μl of the donor sample before incubation was diluted with 20 μl of PBS buffer at pH 7.4 containing 5% DMSO. Volumes of 16 μl of each acceptor well and the diluted donor samples were transferred to a 384-well microplate (Greiner, 781076), and thrombin activity was measured as follows. Human α-thrombin (16 μl, 6 nM, Molecular Innovations) in assay buffer was dispensed into each well using a CERTUS FLEX liquid dispenser (Gyger), and plates were incubated at room temperature for 10 min. Then, 16 μl of a 150 μM fluorogenic thrombin substrate solution (Z-Gly-Gly-Arg-AMC, Bachem) in assay buffer containing 1% DMSO was added to each well, and thrombin inhibition was determined by measuring the fluorescent gain over time. Fluorescence intensity was measured on a Tecan Infinite M200 Pro microplate reader for 30 min at 25 °C with a fluorescent readout every 3 min (excitation: 360 nm, emission: 465 nm). Protease inhibition was calculated by comparing the enzymatic activity to a control without cyclic peptide.

[1] = Metabolic stability in rat liver microsomes (RLMs); details: for TIC value at 0 min: 0 min incubation, Ox (+16)/(+32), deMe (-14)/(-28) = mass adducts (metabolites); for TIC value at 0 min / TIC value at 5 min / TIC value at 15 min / TIC value at 30 min / TIC value at 60 min: LCMS TIC, individual replicates R1-R3, protein 0.5 mg/ml; for TIC value at 5 min: 5 min incubation; for TIC value at 15 min: 15 min incubation; for TIC value at 30 min: 30 min incubation; for TIC value at 60 min: 60 min incubation; for half-life / microsomal CLint: rat, microsomes
[2] = Half Life Mean, rat liver microsomes, mean of R1-R3
[3] = Half Life, rat liver microsomes, individual replicates R1-R3
[4] = Metabolic stability: RLM CL (ul/min/mg), RLMs, mean and SD, three measurements
[5] = RLM CL Mean, rat liver microsomes, mean of R1-R3
[6] = RLM CL, rat liver microsomes, individual replicates R1-R3, incubation volume 400 ul, protein 0.5 mg/ml

| Residual thrombin activity: Top sample (human α-thrombin) | Residual thrombin activity: Equilibrated sample (human α-thrombin) | TIC value at 0 min ([1]; rat liver microsomes) | TIC value at 5 min ([1]; rat liver microsomes) | TIC value at 15 min ([1]; rat liver microsomes) | TIC value at 30 min ([1]; rat liver microsomes) | TIC value at 60 min ([1]; rat liver microsomes) | half-life [1, 2] [min] | half-life [1, 3] [min] | half-life ([1]; Half-life (T1/2) in RLMs, 10 μM peptide, 37 °C, mean and s.d. of three measurements) [min] | half-life ([1]; Metabolic stability: Half life T1/2 (min), RLMs, mean and SD, three measurements) [min] | microsomal CLint [1, 4] [µL/min/mg] | microsomal CLint [1, 5] [µL/min/mg] | microsomal CLint [1, 6] [µL/min/mg] | Structure (SMILES) |
| --- | --- | --- | --- | --- | --- | --- | --- | --- | --- | --- | --- | --- | --- | --- |
| 106.1 | 102.1 | – | – | – | – | – | – | – | – | – | – | – | – | N#Cc1ccc(C[C@@H]2NC(=O)[C@@H](NC(=O)c3ccc(Cl)s3)CCCSCC(=O)CSCCNC(=O)C[C@H]3CCCN3C2=O)cc1 [C3-X35-L7] |
| 97.5 | 96.9 | – | – | – | – | – | – | – | – | – | – | – | – | Cc1cccc(C[C@@H]2NC(=O)[C@@H](NC(=O)c3ccc(Cl)s3)CCSCc3ccccc3CSCCNC(=O)C[C@H]3CCCN3C2=O)c1 [C2-X37-L6] |
| 95.1 | 92.6 | – | – | – | – | – | – | – | – | – | – | – | – | COc1ccc(C[C@@H]2NC(=O)[C@@H](NC(=O)c3ccc(Cl)s3)CCCSCc3ccccc3CSCCNC(=O)C[C@H]3CCCN3C2=O)cc1 [C3-X33-L6] |
| – | – | 6751463 (2×) and 7547988 | 6145465 and 6292775 and 6289651 | 3895721 and 6301539 and 5568669 | 3369766 and 4709220 and 3894141 | 1916782 and 2986882 and 2251799 | 37.4 | 28.1 | 37 ± 10 | 37 ± 10 | 40 ± 9 | 39.6 | 49.2 | CN1CCC(=O)NCCSCC(=O)CSC[C@H](NC(=O)c2cccc(C(F)(F)F)c2)C(=O)N2CCC[C@@H](C2)C1=O [compound 8] |
| – | – | 880057 (2×) and 553202 | 821271 and 965964 and 386285 | 765281 and 1161804 and 367708 | 697748 and 898601 and 342582 | 664165 and 808479 and 323125 | – | 50.6 | – | – | 16.6 ± 7.6 | 16.6 | – | O=C1CSCCNC(=O)c2ccc(cc2)CNC(=O)[C@@H](NC(=O)C2CCS(=O)(=O)CC2)CCNC(=O)CCSC1 [compound 6] |
| – | – | 4300369 (2×) and 5050392 | 4094044 and 4040957 and 4614305 | 4065591 and 3605857 and 4671032 | 3778445 and 3534653 and 4132452 | 3236121 and 3689440 and 3984891 | > 60 | > 60 | – | – | 10.7 ± 1.9 | 10.7 | 9.21 | O=C(N[C@H]1CSC/C=C\CSCCNC(=O)C2(CC2)CNC(=O)[C@H](CO)NC1=O)c1cccnc1 [peptide 2] |
